Data from patent US20130096067A1, “DROSOPHILA TUMOR STEM CELL MODEL AND USES THEREOF” (priority 2011, published 2013).
Like-named read-outs stand apart in the source and are kept apart here.

System: Raf-1^gof intestinal tumors
[1] = screen of 480 ICCB compounds in vials, compounds fed to flies with one-day old Raf-1^gof tumors, assessed three days later, esg-Gal4 luciferase
[2] = screen of 480 ICCB compounds in vials, compounds fed to flies with one-day old Raf-1^gof tumors, assessed three days later, esg-Gal4 luciferase, averaged from multiple wells
[3] = ICCB compounds fed in vials to flies with one-day old Raf-1^gof tumors, assessed three days later
[4] = ICCB compounds fed in vials to flies with one-day old Raf-1^gof tumors, assessed three days later, averaged from multiple wells
Throughout, for Fold (luciferase activity relative to DMSO controls): test concentration or dose not given here.
Throughout, for Fold (luciferase activity, fold difference relative to DMSO controls): test concentration or dose not given here.
Throughout, for Log2 (fold) (luciferase activity, log2 of the fold difference relative to DMSO controls): test concentration or dose not given here.
Throughout, for Log2 (fold) of luciferase activity relative to DMSO controls: test concentration or dose not given here.

Molecule | Log2 (fold) (luciferase activity, log2 of the fold difference relative to DMSO controls) [1] | Fold (luciferase activity, fold difference relative to DMSO controls) [2] | Log2 (fold) of luciferase activity relative to DMSO controls [3] | Fold (luciferase activity relative to DMSO controls) [4] [fold] | further results
N#CC(=Cc1ccc2[nH]ccc2c1)C(N)=C(C#N)C#N [AG-370] | −0.559 | 0.679 |  |  | 
Clc1cccc(Nc2nnc(-c3ccccc3)c3ccccc23)c1 [MY-5445] |  |  | −0.037 | 0.975 | 
pifithrin |  |  | 0.022 | 1.015 | 
N#CC(=C(/N)Sc1ccccc1N)/C(C#N)=C(/N)Sc1ccccc1N [U-0126] |  |  | −0.023 | 0.984 | 
CCCCCCCCCCCCCC(=O)O[C@@H]1[C@@H](C)[C@@]2(O)[C@@H](C=C(CO)C[C@]3(O)C(=O)C(C)=C[C@@H]23)[C@@H]2C(C)(C)[C@]12OC(C)=O [phorbol 12 myristate 13 acetate] | −0.323 | 0.799 |  |  | 
O=C(O)c1ccccc1Nc1cccc(C(F)(F)F)c1 [FLUFENAMIC ACID] | −0.214 | 0.862 |  |  | 
NC(N)=NCCNS(=O)(=O)c1cccc2cnccc12 [HA-1004] | −0.372 | 0.773 |  |  | 
C=C[C@H]1C[N@@]2CC[C@H]1C[C@@H]2[C@@H](O)c1ccnc2ccc(OC)cc12 [QUINIDINE] | −0.351 | 0.784 |  |  | 
C=C1C(=O)O[C@@H]2C[C@@H](C)[C@@H]3C=CC(=O)[C@@]3(C)[C@@H](O)[C@H]12 [Helenalin] |  |  |  |  | Fold (luciferase activity relative to DMSO controls) (in vivo): 1.112 fold; Log2 (fold) of luciferase activity relative to DMSO controls (in vivo): 0.154
COc1ccc(C2CNC(=O)C2)cc1OC1CCCC1 (stereo not shown) [Rolipram] | −0.414 | 0.750 |  |  | 
CCCC[C@@H](C)[C@@H](OC(=O)C[C@@H](CC(=O)O)C(=O)O)[C@H](C[C@@H](C)C[C@H](O)CCCC[C@@H](O)C[C@H](O)[C@H](C)N)OC(=O)C[C@@H](CC(=O)O)C(=O)O [Fumonisin B1] | −0.685 | 0.622 |  |  | 
O=C1Nc2ccccc2/C1=C1/Nc2ccccc2C1=O [Indirubin] |  |  | −0.103 | 0.931 | 
COc1cccc2c1cc([N+](=O)[O-])c1c(C(=O)O)cc3c(c12)OCO3 [aristolochic acid, reference compound] | −1.243 | 0.422 |  |  | Fold (Table 3 summary of hits, Screen ICCB, luciferase relative to DMSO, fed three consecutive days in vials): 0.422 fold
CC(C)[C@@H]1NC(=O)[C@H](C)OC(=O)[C@@H](C(C)C)NC(=O)[C@@H](C(C)C)OC(=O)[C@H](C(C)C)NC(=O)[C@H](C)OC(=O)[C@@H](C(C)C)NC(=O)[C@@H](C(C)C)OC(=O)[C@H](C(C)C)NC(=O)[C@H](C)OC(=O)[C@@H](C(C)C)NC(=O)[C@@H](C(C)C)OC1=O [valinomycin] | −0.408 | 0.754 |  |  | 
CC1(C)CCC(C)(C)c2cc(C(=O)Nc3ccc(C(=O)O)cc3)ccc21 [AM-580] | −0.311 | 0.806 |  |  | 
O=S(=O)(c1cccc2cnccc12)N1CCCNCC1 [HA1077] | −0.326 | 0.798 |  |  | 
CCCCCC=CCC=CCC=CC=CC(=O)CCCC(=O)O [5-KETOEICOSATETRAENOIC ACID] | −0.316 | 0.803 |  |  | 
CC1=C(/C=C/C(C)=C\C=C\C(C)=C\C(=O)O)C(C)(C)CCC1 [9-CIS RETINOIC ACID] | −0.578 | 0.670 |  |  | 
Clc1ccc2ncnc(NCc3ccc4c(c3)OCO4)c2c1 [MBCQ] |  |  | 0.195 | 1.145 | 
CC1=C(CC/C(C)=C/CCC2=CC[C@H](C3=CC(=O)O[C@H]3O)O[C@H]2O)C(C)(C)CCC1 [Manoalide] | −0.490 | 0.712 |  |  | 
CCCC[C@@H](C)/C=C(C)/C=C(\C)C(=O)NC1=C[C@@](O)(/C=C/C=C/C=C/C(=O)NC2=C(O)CCC2=O)[C@@H]2O[C@@H]2C1=O [manumycin A] | −0.233 | 0.851 |  |  | 
O=c1[nH]c2ccccc2n1C1CCN(CCCC(c2ccc(F)cc2)c2ccc(F)cc2)CC1 [PIMOZIDE] | −0.425 | 0.745 |  |  | 
CCCCCC(=O)/C=C/C=C\C/C=C\C/C=C\CCCC(=O)O [15-KETOEICOSATETRAENOIC ACID] | −0.266 | 0.832 |  |  | 

Molecule | Log2 (fold) (luciferase activity, log2 of the fold difference relative to DMSO controls) [1] | Fold (luciferase activity, fold difference relative to DMSO controls) [2] | Log2 (fold) of luciferase activity relative to DMSO controls [3] | Fold (luciferase activity relative to DMSO controls) [4] [fold] | further results
CCCCCCCCCCCCCCC[C@H](O)[C@@H](N)CO (racemic) [DL-DIHYDROSPHINGOSINE] |  |  | 0.076 | 1.054 | 
COc1ccc2c(c1)c(CC(=O)O)c(C)n2C(=O)c1ccc(Cl)cc1 [indomethacin] | −0.549 | 0.683 |  |  | 
C[C@]12C=CC(=O)C=C1CC[C@@H]1C2=CC[C@]2(C)[C@@H](C(=O)CN3CCN(c4cc(N5CCCC5)nc(N5CCCC5)n4)CC3)CC[C@@H]12.O=C(O)/C=C\C(=O)O [U-74389G] | −0.462 | 0.726 |  |  | 
CCCCC/C=C\C/C=C\C/C=C\C/C=C\CCCC(=O)N[C@H](C)CO [(R)-METHANANDAMIDE] |  |  | 0.068 | 1.049 | 
COc1ccc([C@H]2Sc3ccccc3N(CCN(C)C)C(=O)[C@H]2OC(C)=O)cc1 [L-cis-DILTIAZEM] |  |  | 0.137 | 1.100 | 
N#C/C(=C\c1ccc(O)c(O)c1)C(N)=S [AG213 (Tyrphostin 47)] | −0.625 | 0.648 |  |  | 
CC1(C2CCCC2)Cc2cc(OCC(=O)O)c(Cl)c(Cl)c2C1=O (stereo not shown) [IAA-94] |  |  | 0.061 | 1.043 | 
CC(C)COCC(CN(Cc1ccccc1)c1ccccc1)N1CCCC1 (stereo not shown) [BEPRIDIL] |  |  | −0.054 | 0.963 | 
CCCCCCCCCCCCCCC[C@@H](O)[C@H](CO)NC(C)=O [C2 DIHYDROCERAMIDE] | −0.466 | 0.724 |  |  | 
CCCCC/C=C\C/C=C\CC1OC1C/C=C\CCCC(=O)O (stereo not shown) [8,9-EPOXYEICOSATRIENOIC ACID] | −0.625 | 0.649 |  |  | 
CC1=NN(c2ccccc2)C(=O)C1 [MCI-186] |  |  | −0.200 | 0.871 | 
Cc1[nH]c(=O)c(C#N)cc1-c1ccncc1 [Milrinone] | −0.615 | 0.653 |  |  | 
CC(C)(c1ccc(OCC2CO2)cc1)c1ccc(OCC2CO2)cc1 (stereo not shown) [BADGE] |  |  | 0.345 | 1.270 | 
C=CCNC1=C2C[C@@H](C)C[C@H](OC)[C@H](O)[C@@H](C)/C=C(\C)[C@H](OC(N)=O)[C@@H](OC)/C=C\C=C(/C)C(=O)NC(=CC1=O)C2=O [17-Allylamino-geldanamycin] | −0.433 | 0.741 |  |  | 
CCCCCCCCCCCCC/C=C/[C@@H](O)[C@H](CO)N(C)C [N,N-DIMETHYLSPHINGOSINE] | −0.487 | 0.713 |  |  | 
CCCCCCCCCCCCCCCC(=O)C1=C(O)C(CO)OC1=O (stereo not shown) [RK-682] | −0.492 | 0.711 |  |  | 
CC[C@H](CO)Nc1nc(NCc2ccccc2)c2ncn(C(C)C)c2n1 [roscovitine] |  |  |  |  | Fold (luciferase activity, fold difference relative to DMSO controls) (in vivo): 0.659; Log2 (fold) (luciferase activity, log2 of the fold difference relative to DMSO controls) (in vivo): −0.602
CCCCC[C@@H](/C=C/C=C\CCCCCCCC(=O)O)OO [13(S)-HPODE] |  |  | 0.309 | 1.239 | 
CC(C)(O)[C@H]1O[C@H]2CC[C@@]3(C)[C@@](O)(CC[C@H]4Cc5c([nH]c6ccccc56)[C@@]43C)C2=CC1=O [PAXILLINE] |  |  | −0.078 | 0.948 | 
CCCCC/C=C\C/C=C\C/C=C\C/C=C\CCCC(=O)NCCO [ANANDAMIDE (20:4, n-6)] |  |  | 0.054 | 1.038 | 
O=C(O)CCC/C=C\C[C@@H]1[C@H](CNNC(=O)Nc2ccccc2)[C@H]2CC[C@@H]1O2 [SQ-29548] | −0.606 | 0.657 |  |  | 
O=c1c2ccccc2[se]n1-c1ccccc1 [Ebselen] |  |  | −0.168 | 0.890 | 
